How the values were obtained:
[1] = Hydrolysis in human intestinal microsomes; assay type: in vitro ADME; conditions: for intestinal microsomal activity: model input
Text: (§1) The physiologically based pharmacokinetic/pharmacodynamic model of the present invention contains a series of compartments that describe the time course of a nonsteroidal anti-inflammatory prodrug, its active metabolites and nitric oxide release in intestine, liver, kidneys, blood/plasma and heart after prodrug administration. The time course of the prodrug, its active metabolites and nitric oxide release can be simulated using a series of in vitro and in silico inputs. The stability of each component in the gastrointestinal lumen is estimated using data collected from artificial gastric and intestinal juice. Intestinal metabolism is estimated using intestinal microsomes and absorption rate is estimated using permeability data collected from a cell monolayer such as Caco-2. Hepatic elimination is estimated using liver microsomes and stability in plasma is calculated using degradation of each component in the media. Plasma protein binding can either be measured using a standardized in vitro method or it can be estimated using an in silico method. The distribution of each component in various parts of the body is estimated using an in silico method. The rate of nitric oxide release is estimated using an in vitro endothelial cell model. The time course of prodrug, its active metabolites and nitric oxide can be simulated in human and animal using this physiologically based pharmacokinetic/pharmacodynamic model provided that the corresponding in vitro and in silico data are used as inputs.
The selection of in vitro tests is designed to provide parameters for the above mentioned model. The use of an inappropriate test would result in wrong predictions. For example, Knaus et al. (2005) used guinea pig serum and porcine esterases to hydrolyze their O^2-substituted diazeniumdiolate derivatives of ASPIRIN, as disclosed in U.S. Ser. No. 60/681,842. These tests provided very little information in terms of in vivo human NO-NSAID metabolism rate and the extent to which metabolic conversion to NO donor and NSAID occurred. […] The half-life values were less than one minute. Based on these observations, it has become apparent that prior to entering the systemic circulation, it is likely that the NO-NSAID would have been hydrolyzed in the enterocytes and little or no NO-NSAID would have been detected in the blood stream. Furthermore, the release of NO will commence immediately once the NO donor is detached from the NSAID.
(§2) Representative in vitro tests or in silico estimates include: (a) pKa estimation or measurement; (b) Log P measurement or in silico estimation; (c) Solubility in various physiological fluids; (d) Permeability. Caco-2 and/or NOVOKIN's proprietary animal and human cell lines can be used to obtain this parameter; (e) Metabolic rate in the intestine and liver. Human or animal intestinal microsomes, S9 fraction, and cytosol can be used for this purpose. Human or animal hepatocytes, liver microsomes, S9 fraction, and cytosol can also be used; (f) Hydrolysis in human or animal plasma; (g) Serum or plasma protein binding. It can be measured in vitro or estimated in silico; (h) The rate of NO release; (i) Existing pharmacokinetic and pharmacodynamic data of NSAID or a biocompatible agent; (j) Existing NO release rate of known diazeniumdiolate if applicable; (k) Stability in gastric and intestinal environment; and (l) In silico volume of distribution estimation.
Whenever in vitro estimate is attainable, the in vitro results will be used, for example, plasma protein binding. Methods reported by Bowalgaha & Miners (2001), Martignoni et al. (2006), Tong et al. (2001) and Thulesen et al. (1999) were used for in vitro and in vivo scale-up for clearance in the intestine, absorption rate constant and hepatic clearance. The simulation begins with no material in all compartments except for the initial bolus in one compartment (typically the stomach compartment). The simulation then estimates the changing distribution of the material with time.

male Wistar rats = assay: Urine N-acetylglucosaminidase to creatinine ratio (distal tubule toxicity); assay type: in vivo, rat; conditions: oral gavage, urine collected for 6 hours
Description: (§3) Table 1 is a summary of the protocol for a study which was conducted in male Wistar rats weighing 275-300 grams. The animals were allowed to acclimatize for at least five days prior to the commencement of the study. The study protocol was approved by the local animal ethics committee.
All test animals, housed in metabolic cages, had urine collected over wet ice for 6 hours after dosing. Aliquots of the urine from each animal were collected to determine creatinine concentration. The remainder of the urine was centrifuged at 1000 g for 10 minutes. The supernatant was collected and mixed with analytical grade ethylene glycol at a rate of 0.4 mL ethylene glycol per 1 mL urine supernatant. The ethylene glycol/urine mixture was stored at −80° C. until analysis.

Hydrolysis in rat plasma = assay type: in vitro ADME; conditions: Rat
Text: as §1, §2

[2] = Hydrolysis in human liver microsomes; assay type: in vitro ADME; conditions: for liver microsomal activity: model input
Text: as §1, with “The” for “The physiologically based pharmacokinetic/pharmacodynamic model of the present invention contains a series of compartments that describe the time course of a nonsteroidal anti-inflammatory prodrug, its active metabolites and nitric oxide release in intestine, liver, kidneys, blood/plasma and heart after prodrug administration. The”
The selection of in vitro tests is designed to provide parameters for the above mentioned model. The use of an inappropriate test would result in wrong predictions.
as §2
The simulation begins with no material in all compartments except for the initial bolus in one compartment (typically the stomach compartment). The simulation then estimates the changing distribution of the material with time.

[3] = system: cardiac tissue prostacyclin (PGI2) to thromboxane A2 (TXB2) ratio; assay: Cardiac tissue prostacyclin to thromboxane ratio; assay type: in vivo, rat; conditions: male Wistar rats; for Cardiac Tissue PGI2/TXB2, Mean: oral gavage, heart removed 6 hours after dosing
Text: Myocardial infarction and ischemic events in high risk patients led one of the most popular COX-2 inhibitors to its demise (Bresalier et al., 2005). Non-selective NSAIDS may also cause similar problems due to their ability to inhibit COX-2. […] Adenosine diphosphate (ADP) generation is an indicator of myocardial infarction which has no connection with the arachidonic acid cascade (Borna et al., 2005). […] Long term NSAID use has been linked to kidney damage and hypertension (Zafirovska et al., 1993). […] This was associated with an increase in the urine the ratio of alanine-amino-peptidase (AAP) and creatinine.
as §3
All rats were euthanized by removal of the heart 6 hours after initial dosing, following final blood collections. Immediately after terminal blood collections were complete, the thorax was opened and the heart removed. The heart was cut in half longitudinally. Half of the heart was placed in formalin for histological examination. The other half was quickly rinsed in saline and then freeze-clamped (crushed between the jaws of a pair of modified tongs, cooled by liquid nitrogen). An entire kidney was freeze-clamped. The other kidney was left in situ for examination by the pathologist. Freeze-clamped tissues were wrapped in labeled aluminum foil and stored in liquid nitrogen until they could be transferred to a −80° C. freezer. Freeze-clamped tissues were shipped on dry ice to NOVOKIN for analysis.

SMILES | intestinal microsomal activity [1] [mL/min/organ] | Urine NAG/Cr values, Mean (male Wistar rats) | plasma decay rate constant (Hydrolysis in rat plasma) [min⁻¹] | liver microsomal activity [2] [mL/min/organ] | PGI2/TXA2 ratio comparison (in words) ([3]; cardiac tissue) | Cardiac Tissue PGI2/TXB2, Mean [3] | intestinal molar percent conversion to Naproxen [1] [%] | liver molar percent conversion to Naproxen [2] [%]
COc1ccc2cc([C@H](C)C(=O)OCCCCO[N+](=O)[O-])ccc2c1 [AZD 3582] | 554 | 27.439 | 1.0 | 118566 | lower ratios than vehicle | 3.432 | – | –
COc1ccc2cc(C(C)C(=O)OCON=[N+]([O-])N3CCCC3)ccc2c1 (stereo not shown) [PYRO-NO-NAP, pyrrolidino-diazeniumdiolate-naproxen] | 188 | 21.515 | 1.4 | 567000 | – | 4.937 | 87 | 72

Reference: patent US20080288176A1 (priority 2005, published 2008)
